Reference: patent publication US10494380B2, “Nitrogen-containing tricyclic derivatives having HIV replication inhibitory activity” (priority 2015, dated 2019)
Where two headings read alike, the source gives them in different places.

Columns and labels:
Type in all cases: cell-based
HIV (HTLV-IIIB strain) = assay: HIV replication inhibition assay (Test Example 1; MT-4 cells, MTT)
Protocol: HIV (HTLV-IIIB strain) persistent infected human T cell strain Molt-4 clone8 was cultured in RPMI-1640 medium supplemented with 10% fetal bovine serum and the supernatant was filtered, then the virus titer was measured and stored at −80° C. Each anti-human immunodeficiency virus active substance was diluted with the above culture medium to the designated concentration, which was dispensed into 96-well microtiter plate by 50 μL. Next, 100 μL of MT-4 cell suspension (2.5×10^4 cells) was dispensed into each well, then 50 μl of the above HIV-containing supernatant diluted with the above culture medium was added thereto (60 pfu (plaque forming unit)).
Cell mixture was cultured at 37° C. in CO2 incubator for four days, then 30 μL of MTT (3-(4,5-dimethylthiazole-2-yl)-2,5-diphenyltetrazolyum bromide) reagent (5 mg/mL in PBS) was added to all wells followed by incubation for 1 hour. In this step, MTT was reduced to insoluble formazan in living cells. To elute generated formazan 150 μL of the culture supernatant was removed from all wells, then 150 μL of cell lysis solution (10% Triton X-100 and 0.4% (v/v)-HCl containing isopropanol) was added thereto, followed by shaking with a plate mixer. The formazan was measured with micro plate reader at OD: 560 nm and 690 nm (reference wavelength) and the result was compared with the reference wells. EC50 and EC90 mean the compound concentration at which cytotoxicity caused by virus infection is inhibited 50% and 90%, respectively.

HIV = conditions: EC50 in the presence of human serum (25%) versus without human serum, MT-4 cells
In short: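 HIV-infected MT-4 cells (3×10^4/well, infected 1 h at 37° C) are grown 4 days with compound that was first mixed 1 h with human serum or with medium only. Potency shift is the EC50 with serum divided by the EC50 without serum.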

[1] = tested on: T125A mutant virus (HIV-1 NL-432 recombinant molecular clone, IN gene); assay: HIV replication inhibition assay against integrase 124/125 mutant virus (Test Example 2); conditions: Human immunodeficiency virus 1, MT4, read-out: EC50 against T125A mutant virus, T125A mutant virus (HIV-1 NL-432 IN gene), MT-4 cells, MTT
In short: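 EC50 is the compound concentration blocking half of virus-induced cell death, measured by MTT (OD 560 nm, 690 nm reference) after 4 days at 37 °C. Integrase 124/125 mutant NL-432 virus from transfected 293T cells (60 pfu) was added to 2.5×10^4 MT-4 cells with compound.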

[2] = Human immunodeficiency virus 1, MT4, 96 h, HIV (HTLV-IIIB strain), MT-4 cells, MTT, four days, read-out: EC50
[3] = Human immunodeficiency virus 1, MT4, 96 h, HIV (HTLV-IIIB strain), MT-4 cells, MTT, four days, read-out: EC90
[4] = Human immunodeficiency virus 1, IIIB, MT4, 96 h
[5] = Human immunodeficiency virus 1, MT4, 96 h, MT-4 cells, HIV HTLV-IIIB strain, cultured four days, MTT, read-out: EC50

Row | SMILES | EC50 (HIV (HTLV-IIIB strain); [2]) | EC90 (HIV (HTLV-IIIB strain); [3]) | Potency shift value (HIV) | EC50 [1] | EC50 (HIV (HTLV-IIIB strain); [4]) | EC90 (HIV (HTLV-IIIB strain); [4]) | EC50 (HIV (HTLV-IIIB strain); [5])
1 | Cc1ccc(-c2c([C@H](OC(C)(C)C)C(=O)O)c(C)c3c4c2cc(C)n4CCN3C)c(O)c1 (mixture of isomers) [Compound I-245] | 0.027 µM | 0.042 µM | 12 | 0.063 µM |  |  | 
2 | Cc1ccc(-c2c([C@H](OC(C)(C)C)C(=O)O)c(C)c3c4c2c(Cl)c(C)n4CCN3C)cc1 [Compound I-002] | 0.0022 µM | 0.0035 µM |  | 0.021 µM |  |  | 
3 | Cc1ccc(-c2c([C@H](OC(C)(C)C)C(=O)O)c(C)c3c4c2ccn4CCN3C)cc1 [Compound I-004] | 0.0041 µM | 0.006 µM |  | 0.048 µM |  |  | 
4 | Cc1ccc(-c2c([C@H](OC(C)(C)C)C(=O)O)c(C)c3c4c2cc(COCc2ccccc2)n4CCN3C)cc1 [Compound I-005] | 0.031 µM | 0.046 µM | 7.8 |  |  |  | 
5 | Cc1ccc(-c2c([C@H](OC(C)(C)C)C(=O)O)c(C)c3c4c2cc(C(F)(F)F)n4CCN3C)cc1 [Compound I-007] | 0.002 µM | 0.0036 µM | 49 | 0.018 µM |  |  | 
6 | CCN1CCn2c(C)cc3c(-c4ccc(C)cc4)c([C@H](OC(C)(C)C)C(=O)O)c(C)c1c32 [Compound I-009] | 0.00098 µM | 0.0016 µM | 38 | 0.014 µM |  |  | 
7 | COCc1cc2c(-c3ccc(C)cc3)c([C@H](OC(C)(C)C)C(=O)O)c(C)c3c2n1CCN3C [Compound I-011] | 0.016 µM | 0.024 µM | 21 |  |  |  | 
8 | CCCc1cc2c(-c3ccc(C)cc3)c([C@H](OC(C)(C)C)C(=O)O)c(C)c3c2n1CCN3C [Compound I-013] | 0.0097 µM | 0.015 µM | 49 |  |  |  | 
9 | CC(=O)N1CCn2c(C)cc3c(-c4ccc(C)cc4)c([C@H](OC(C)(C)C)C(=O)O)c(C)c1c32 [Compound I-014] | 0.0016 µM | 0.0022 µM | 8.7 | 0.015 µM |  |  | 
10 | Cc1ccc(-c2c([C@H](OC(C)(C)C)C(=O)O)c(C)c3c4c2cc(C)n4CCN3)cc1 [Compound I-015] | 0.027 µM | 0.04 µM | 11 |  |  |  | 
11 | Cc1c([C@H](OC(C)(C)C)C(=O)O)c(-c2ccc(Cl)cc2)c2cc(C)n3c2c1NC(=O)C3 [Compound I-016] | 0.0087 µM | 0.013 µM | 8.6 | 0.042 µM |  |  | 
12 | Cc1c([C@H](OC(C)(C)C)C(=O)O)c(-c2ccc(Cl)cc2)c2cc(C)n3c2c1N(C(=O)CN(C)C)CC3 [Compound I-017] | 0.02 µM | 0.031 µM | 4.5 | 0.094 µM |  |  | 
13 | CNCC(=O)N1CCn2c(C)cc3c(-c4ccc(Cl)cc4)c([C@H](OC(C)(C)C)C(=O)O)c(C)c1c32 [Compound I-018] | 0.083 µM | 0.1 µM | 6.8 |  |  |  | 
14 | Cc1ccc(-c2c([C@H](OC(C)(C)C)C(=O)O)c(C)c3c4c2cc(C)n4CC(=O)N3C)cc1 [Compound I-020] | 0.0095 µM | 0.012 µM | 41 |  |  |  | 
15 | Cc1ccc(-c2c([C@H](OC(C)(C)C)C(=O)O)c(C)c3c4c2cc(C)n4CCN3CCO)cc1 [Compound I-021] | 0.0052 µM | 0.0075 µM | 5.4 | 0.022 µM |  |  | 
16 | Cc1ccc(-c2c([C@H](OC(C)(C)C)C(=O)O)c(C)c3c4c2cc(CO)n4CCN3C)cc1 [Compound I-022] | 0.017 µM | 0.025 µM | 4.5 |  |  |  | 
17 | CCS(=O)(=O)N1CCn2c(C)cc3c(-c4ccc(Cl)cc4)c([C@H](OC(C)(C)C)C(=O)O)c(C)c1c32 [Compound I-023] | 0.001 µM | 0.0026 µM | 12 | 0.0055 µM |  |  | 
18 | Cc1ccc(-c2c([C@H](OC(C)(C)C)C(=O)O)c(C)c3c4c2cc(C(F)F)n4CCN3C)cc1 [Compound I-024] | 0.0016 µM | 0.0021 µM | 22 | 0.0077 µM |  |  | 

Row | SMILES | EC50 (HIV (HTLV-IIIB strain); [2]) | EC90 (HIV (HTLV-IIIB strain); [3]) | Potency shift value (HIV) | EC50 [1] | EC50 (HIV (HTLV-IIIB strain); [4]) | EC90 (HIV (HTLV-IIIB strain); [4]) | EC50 (HIV (HTLV-IIIB strain); [5])
19 | CC(=O)N1CCn2c(C)cc3c(-c4ccc(Cl)cc4)c([C@H](OC(C)(C)C)C(=O)O)c(C)c1c32 [Compound I-025] | 0.0023 µM | 0.0031 µM | 11 | 0.013 µM |  |  | 
20 | Cc1ccc(-c2c([C@H](OC(C)(C)C)C(=O)O)c(C)c3c4c2cc(C)n4CCN3CCNC2CC2)cc1 [Compound I-028] | 0.074 µM | 0.093 µM | 2.5 |  |  |  | 
21 | Cc1c([C@H](OC(C)(C)C)C(=O)O)c(-c2ccc(Cl)cc2)c2cc(C)n3c2c1N(S(=O)(=O)CC[Si](C)(C)C)CC3 [Compound I-029] |  |  | 28 | 0.089 µM | 0.0086 µM | 0.012 µM | 
22 | Cc1c([C@H](OC(C)(C)C)C(=O)O)c(-c2ccc(Cl)cc2)c2cc(C)n3c2c1N1C(=O)OCC[C@@H]1C3 [Compound I-167] |  | 0.018 µM | 4.1 | 0.049 µM |  |  | 0.0076 µM
23 | Cc1ccc(-c2c([C@H](OC(C)(C)C)C(=O)O)c(C)c3c4c2cc(C)n4CCN3CCN2CCCO2)cc1 [Compound I-170] |  | 0.0052 µM | 3.5 | 0.018 µM |  |  | 0.0031 µM
24 | Cc1c([C@H](OC(C)(C)C)C(=O)O)c(-c2ccc(F)cc2)c2cc(C)n3c2c1N(CCN(C)C)CC3 [Compound I-171] |  | 0.024 µM | 1.4 | 0.062 µM |  |  | 0.015 µM
25 | Cc1ccc(-c2c([C@H](OC(C)(C)C)C(=O)O)c(C)c3c4c2cc(C)n4CCN3CCN2C3CCC2COC3)cc1 [Compound I-172] |  | 0.0054 µM | 2.3 | 0.016 µM |  |  | 0.0035 µM
26 | Cc1ccc(-c2c([C@H](OC(C)(C)C)C(=O)O)c(C)c3c4c2cc(C)n4CCN3c2ncc(Oc3nc(C)nc4ccccc34)cn2)cc1 [Compound I-343] |  |  | 11 | 0.021 µM |  |  | 
27 | Cc1ccc(-c2c([C@H](OC(C)(C)C)C(=O)O)c(C)c3c4c2cc(C)n4CCN3c2ncc(Oc3nccc4ccccc34)cn2)cc1 [Compound I-344] |  |  | 33 | 0.017 µM |  |  | 
28 | Cc1ccc(-c2c([C@H](OC(C)(C)C)C(=O)O)c(C)c3c4c2cc(C)n4CCN3c2ncc(Oc3nc4ccccc4o3)cn2)cc1 [Compound I-345] |  |  | 41 | 0.038 µM |  |  | 
29 | Cc1ccc(-c2c([C@H](OC(C)(C)C)C(=O)O)c(C)c3c4c2cc(C)n4CCN3c2ncc(CN3CCCC3)cn2)cc1 [Compound I-347] |  |  | 7.4 | 0.01 µM |  |  | 
30 | Cc1ccc(-c2c([C@H](OC(C)(C)C)C(=O)O)c(C)c3c4c2cc(C)n4CCN3c2ncc(CN3CCOCC3)cn2)cc1 [Compound I-348] |  |  | 21 | 0.005 µM |  |  | 
31 | Cc1ccc(-c2c([C@H](OC(C)(C)C)C(=O)O)c(C)c3c4c2cc(C)n4CCN3c2ncc(CN3CCN(C)CC3)cn2)cc1 [Compound I-349] |  |  | 3.6 | 0.03 µM |  |  | 
32 | Cc1ccc(-c2c([C@H](OC(C)(C)C)C(=O)O)c(Cl)c3c4c2cc(C)n4CCN3c2ncc(OCCN(C)C)cn2)cc1 [Compound I-350] |  |  | 4.3 | 0.022 µM |  |  | 
33 | Cc1ccc(-c2c([C@H](OC(C)(C)C)C(=O)O)c(C)c3c4c2cc(C)n4CCN3c2ncc(CCN3CCN(C)CC3)cn2)cc1 [Compound I-351] |  |  | 5.5 | 0.017 µM |  |  | 
34 | Cc1ccc(-c2c([C@H](OC(C)(C)C)C(=O)O)c(Cl)c3c4c2cc(C)n4CCN3c2nc3c(s2)CCN(C)C3)cc1 [Compound I-352] |  |  | 10 | 0.014 µM |  |  | 
35 | Cc1ccc(-c2c([C@H](OC(C)(C)C)C(=O)O)c(Cl)c3c4c2cc(C)n4CCN3c2nc3c(s2)CN(C)CC3)cc1 [Compound I-353] |  |  | 10 | 0.015 µM |  |  | 
36 | Cc1ccc(-c2c([C@H](OC(C)(C)C)C(=O)O)c(Cl)c3c4c2cc(C)n4CCN3c2ccc(C)nn2)cc1 [Compound I-354] |  |  | 27 | 0.0053 µM |  |  | 
